The subject of series [1] is ZEAMA Sileno. The experiment in a line: Seed treatment with safener; post-emergence herbicide application. In kind it is in vivo, maize. Also on record: Reduction [Difference]: scale not given here. Particulars: Final assessment; for Reduction [%] / Reduction [Difference]: Cyprosulfamide 0.5 g a.i./kg seed; for Reduction [Difference]: damage without safener - damage with safener; for HER effect + SAF (crop damage with safener): Cyprosulfamide seed treatment 0.5 g a.i./kg seed; for HER effect (crop damage, herbicide without safener): no safener. As for the experimental part: For the safener seed treatment, sufficient seeds of the respective crops (spring wheat, TRZAS; spring barley, HORVS; maize, ZEAMA) were weighed into screw top glass bottles approximately twice the volume of the seeds.
The specified safeners, formulated as wettable powder (WP) were weighed out so that the specified rates (g a.i./kg seed) would be obtained, dissolved in water (1 ml water per 10 g of seeds), and added to the seeds to produce a slurry.
The bottles were capped and then placed in an overhead shaker (set at medium speed for ca. 60 minutes) so that the seeds were evenly coated with the slurry. The bottles were uncapped and the seeds were either placed on paper and dried for an interval of 3-4 hours prior to sowing, or directly sown. Seeds were placed in sandy loam soil in pots of a diameter of 7-8 cm, covered with soil, and cultivated in a greenhouse under good growth conditions.
Post-emergence application of the specified herbicides was done when the plants had reached growth stage BBCH11-13, on two sets of plants:
a) seed treatment with safener, as described above b) no safener treatment
The herbicides were formulated as WP and sprayed onto the green parts of the plants as an aqueous suspension at an equivalent water application rate of 300 1/ha, with addition of wetting agent and adjuvants (e.g. Mero, 1.5 1/ha; ammonium sulphate, 2 kg/ha)
After application, the test plants were kept in the greenhouse under good growth conditions.
Values in the table below are mean values of at least 2 replicates.

Series [2] concerns ZEAMA Sileno. The experiment in a line: Tank-mix; post-emergence, crop damage with and without safener. The series is classed as in vivo, maize. Particulars: for HER effect + SAF / HER effect: Final assessment; for HER effect: no safener. Here is the method: Seeds of crops (spring wheat, TRZAS; spring barley, HORVS; maize, ZEAMA) were placed in sandy loam soil in peat pots, covered with soil and cultivated in a greenhouse under good growth conditions. Two to three weeks after sowing, the test plants were treated at the 1 to 3-leaf stage. The herbicide/safener active compound combinations according to the invention, formulated as wettable powders or emulsion concentrates, and, in parallel tests, the correspondingly formulated individual active compounds were sprayed onto the green parts of the plants in various dosages using an amount of water of 300 1/ha (converted).
The pots were returned under good growing conditions in a glasshouse and a visual assessment of herbicidal effects was made at intervals from 1 to 3 weeks after herbicide application (DAT = days after treatment). Assessment was on a percentage basis in comparison with untreated control plants (0% = no injury, 100% = complete kill).

Setting [3] is: HER 8 g a.i./ha, cyprosulfamide 50 g a.i./ha.
Setting [4] is: HER 32 g a.i./ha, cyprosulfamide 100 g a.i./ha.
The mark [5] stands for this setting: HER dose 8 g a.i./ha + cyprosulfamide 50 g a.i./ha tank-mix.
The mark [6] stands for this setting: HER dose 32 g a.i./ha + cyprosulfamide 100 g a.i./ha tank-mix.
The mark [7] stands for this setting: HER 2 g a.i./ha, cyprosulfamide 50 g a.i./ha.
[8] abbreviates: HER 2 g a.i./ha, cyprosulfamide 50 g a.i./ha, damage without safener - damage with safener.
[9] abbreviates: HER dose 2 g a.i./ha + cyprosulfamide 50 g a.i./ha tank-mix.
[10] abbreviates: HER dose 2 g a.i./ha, 0% = no injury, 100% = complete kill.

Molecules are shown by their SMILES.

This note sets out measurements from patent US20230240297A1, “SELECTIVE HERBICIDES BASED ON SUBSTITUTED ISOXAZOLIN CARBOXAMIDES AND CYPROSULFAMIDE” (Bayer Aktiengesellschaft, priority 2020, published 2023).

In the case of `COCCOC(=O)C1C=CC(NC(=O)C2(C)CC(c3cc(Cl)cc(C#N)c3)=NO2)C1` (stereo not drawn) [Example 1.5], the “Reduction [%]” value stood at 100% in series [1] (HER dose 2 g a.i./ha); 88% in series [1] (HER dose 8 g a.i./ha); 79% in series [1] (HER dose 32 g a.i./ha); 55% in series [2] (setting [3]); 50% in series [2] (setting [4]). For the same compound, the “Reduction [Difference]” value in series [1] (HER dose 2 g a.i./ha) is listed as 23; in series [1] (HER dose 8 g a.i./ha) it was 75; in series [1] (HER dose 32 g a.i./ha) it was 76; in series [2] (setting [3]), 47; in series [2] (setting [4]), 48. Also, the entries for the “HER effect + SAF (crop damage with safener)” value in series [1] (HER dose 2 g a.i./ha), in series [1] (HER dose 8 g a.i./ha) and in series [1] (HER dose 32 g a.i./ha) were 0%, 10% and 20%, respectively. The “HER effect (crop damage, herbicide without safener)” value in series [1] (HER dose 2 g a.i./ha) came out at 23%; in series [1] (HER dose 8 g a.i./ha), 85%; in series [1] (HER dose 32 g a.i./ha) it was 96%. For the same compound, the “HER effect + SAF” value in series [2] (setting [5]) was 38%; in series [2] (setting [6]) it was 48%. The HER effect in series [2] (HER dose 8 g a.i./ha) is 85%; in series [2] (HER dose 32 g a.i./ha), 96%.

Turning to `CCOC(=O)C1=CCC(NC(=O)C2(C)CC(c3cccc(F)c3)=NO2)C1` (mixture of isomers) [Example 1.59], the “Reduction [%]” value came to 100% in series [1] (HER dose 8 g a.i./ha), 85% in series [1] (HER dose 32 g a.i./ha), 100% in series [2] (setting [3]) and 90% in series [2] (setting [4]). The “Reduction [Difference]” value in series [1] (HER dose 8 g a.i./ha) was determined as 20; in series [1] (HER dose 32 g a.i./ha), 57; in series [2] (setting [3]), 20; in series [2] (setting [4]), 60. Further, the results for the “HER effect + SAF (crop damage with safener)” value in series [1] (HER dose 8 g a.i./ha) and in series [1] (HER dose 32 g a.i./ha) were 0% and 10%, respectively. Further, the “HER effect (crop damage, herbicide without safener)” value came to 20% in series [1] (HER dose 8 g a.i./ha) and 67% in series [1] (HER dose 32 g a.i./ha). The “HER effect + SAF” value is listed as 0% in series [2] (setting [5]) and 7% in series [2] (setting [6]). Besides, the HER effect in series [2] (HER dose 8 g a.i./ha) was found to be 20%; in series [2] (HER dose 32 g a.i./ha), 67%.

Take `C=CCOC(=O)C1CC(NC(=O)C2(C=C)CC(c3cc(F)cc(F)c3)=NO2)CO1` (mixture of isomers) [Example 1.83]: the “Reduction [%]” value came out at 100% in series [1] (HER dose 8 g a.i./ha), 96% in series [1] (HER dose 32 g a.i./ha), 73% in series [2] (setting [3]) and 73% in series [2] (setting [4]). The “Reduction [Difference]” value in series [1] (HER dose 8 g a.i./ha) is given as 62; in series [1] (HER dose 32 g a.i./ha), 82; in series [2] (setting [3]), 45; in series [2] (setting [4]) it was 62. Besides, the “HER effect + SAF (crop damage with safener)” value in series [1] (HER dose 8 g a.i./ha) was found to be 0%; in series [1] (HER dose 32 g a.i./ha), 3%. Also, the “HER effect (crop damage, herbicide without safener)” value came to 62% in series [1] (HER dose 8 g a.i./ha) and 85% in series [1] (HER dose 32 g a.i./ha). The “HER effect + SAF” value in series [2] (setting [5]) was 17%; in series [2] (setting [6]), 23%. Also, the HER effect in series [2] (HER dose 8 g a.i./ha) is 62%; in series [2] (HER dose 32 g a.i./ha), 85%.

On to `C=CC1(C(=O)NC2COC(C(=O)OCCOC)C2)CC(c2cc(F)cc(F)c2)=NO1` (mixture of isomers) [Example 1.66], for which the “Reduction [%]” value was determined as 100% in series [1] (HER dose 2 g a.i./ha); 100% in series [1] (HER dose 8 g a.i./ha); 97% in series [1] (HER dose 32 g a.i./ha); 79% in series [2] (setting [7]); 76% in series [2] (setting [3]); 54% in series [2] (setting [4]). Moreover, the “Reduction [Difference]” value in series [1] (HER dose 2 g a.i./ha) is listed as 33; in series [1] (HER dose 8 g a.i./ha), 96; in series [1] (HER dose 32 g a.i./ha), 94; in series [2] (setting [8]), 26; in series [2] (setting [3]) it was 73; in series [2] (setting [4]), 52. Further, the “HER effect + SAF (crop damage with safener)” value came out at 0% in series [1] (HER dose 2 g a.i./ha), 0% in series [1] (HER dose 8 g a.i./ha) and 3% in series [1] (HER dose 32 g a.i./ha). Besides, the “HER effect (crop damage, herbicide without safener)” value in series [1] (HER dose 2 g a.i./ha) is listed as 33%; in series [1] (HER dose 8 g a.i./ha), 96%; in series [1] (HER dose 32 g a.i./ha), 97%. Also, the “HER effect + SAF” value stood at 7% in series [2] (setting [9]), 23% in series [2] (setting [5]) and 45% in series [2] (setting [6]). The HER effect in series [2] (setting [10]) is listed as 33%; in series [2] (HER dose 8 g a.i./ha), 96%; in series [2] (HER dose 32 g a.i./ha), 97%.

With `CC1(C(=O)NC2CC=C(C(=O)NS(C)(=O)=O)C2)CC(c2cc(F)cc(F)c2)=NO1` (mixture of isomers) [Example 1.61], in series [1] (HER dose 8 g a.i./ha), the “Reduction [%]” value is given as 57%; the “Reduction [Difference]” value is listed as 47; the “HER effect + SAF (crop damage with safener)” value stood at 35%; the “HER effect (crop damage, herbicide without safener)” value is given as 82%. In addition, in series [1] (HER dose 32 g a.i./ha), the “Reduction [%]” value is on record as 44%; the “Reduction [Difference]” value was 40; the “HER effect + SAF (crop damage with safener)” value is recorded as 50%; the “HER effect (crop damage, herbicide without safener)” value was found to be 90%.

Consider `COC(=O)C1=CC(NC(=O)C2(C)CC(c3cc(F)cc(F)c3)=NO2)CC1` (stereo not drawn) [Example 1.63], for which the “Reduction [%]” value in series [1] (HER dose 2 g a.i./ha) amounted to 100%; in series [1] (HER dose 8 g a.i./ha), 85%; in series [1] (HER dose 32 g a.i./ha), 85%; in series [2] (setting [7]), 87%; in series [2] (setting [3]) it was 73%; in series [2] (setting [4]) it was 52%. For the same compound, the “Reduction [Difference]” value in series [1] (HER dose 2 g a.i./ha) came out at 23; in series [1] (HER dose 8 g a.i./ha), 72; in series [1] (HER dose 32 g a.i./ha), 75; in series [2] (setting [8]), 20; in series [2] (setting [3]), 62; in series [2] (setting [4]) it was 46. For the same compound, the results for the “HER effect + SAF (crop damage with safener)” value in series [1] (HER dose 2 g a.i./ha), in series [1] (HER dose 8 g a.i./ha) and in series [1] (HER dose 32 g a.i./ha) were 0%, 13% and 13%, respectively. Moreover, the “HER effect (crop damage, herbicide without safener)” value was 23% in series [1] (HER dose 2 g a.i./ha), 85% in series [1] (HER dose 8 g a.i./ha) and 88% in series [1] (HER dose 32 g a.i./ha). In addition, the “HER effect + SAF” value in series [2] (setting [9]) was 3%; in series [2] (setting [5]), 23%; in series [2] (setting [6]) it was 42%. Further, the HER effect in series [2] (setting [10]) is listed as 23%; in series [2] (HER dose 8 g a.i./ha) it was 85%; in series [2] (HER dose 32 g a.i./ha), 88%.

Consider `C=CC1(C(=O)NC2COC(C(=O)OCCCl)C2)CC(c2cc(F)cc(F)c2)=NO1` (mixture of isomers) [Example 1.82], for which, in series [1] (HER dose 2 g a.i./ha), the “Reduction [%]” value stood at 100%; the “Reduction [Difference]” value stood at 28; the “HER effect + SAF (crop damage with safener)” value is reported as 0%; the “HER effect (crop damage, herbicide without safener)” value came out at 28%. Besides, in series [1] (HER dose 8 g a.i./ha), the “Reduction [%]” value worked out at 89%; the “Reduction [Difference]” value came out at 83; the “HER effect + SAF (crop damage with safener)” value is on record as 10%; the “HER effect (crop damage, herbicide without safener)” value is on record as 93%. Also, in series [1] (HER dose 32 g a.i./ha), the “Reduction [%]” value is on record as 84%; the “Reduction [Difference]” value was found to be 77; the “HER effect + SAF (crop damage with safener)” value worked out at 15%; the “HER effect (crop damage, herbicide without safener)” value worked out at 92%.
